Laboratory results taken from ChEMBL document CHEMBL4020801, “New merosesquiterpenes from a Vietnamese marine sponge of Spongia sp. and their biological activities” (Bioorg Med Chem Lett, 2017).
In brackets after ≈: the same amount, converted by molar mass.

What was measured:
MCF7 = assay: Cytotoxicity against human MCF7 cells assessed as decrease in cell viability after 72 hrs by WST8 assay; type: functional, cell-based; settings: MCF7, 72 h
Klebsiella pneumoniae = assay: Antibacterial activity against Klebsiella pneumoniae NBRC 14940 after 12 hrs by MTT assay; type: functional; settings: NBRC 14940, 12 h
Staphylococcus aureus = assay: Antibacterial activity against Staphylococcus aureus NBRC 100910 after 12 hrs by MTT assay; type: functional; settings: NBRC 100910, 12 h
Escherichia coli = assay: Antibacterial activity against Escherichia coli NBRC 102203 after 12 hrs by MTT assay; type: functional; settings: NBRC 102203, 12 h
HeLa = assay: Cytotoxicity against human HeLa cells assessed as decrease in cell viability after 72 hrs by WST8 assay; type: functional, cell-based
WI-38 = assay: Cytotoxicity against human WI38 cells assessed as decrease in cell viability after 72 hrs by WST8 assay; type: cell-based; settings: WI-38, 72 h
A549 = assay: Cytotoxicity against human A549 cells assessed as decrease in cell viability after 72 hrs by WST8 assay; type: functional, cell-based; settings: A549, 72 h
Bacillus subtilis = assay: Antibacterial activity against Bacillus subtilis NBRC 13719 after 12 hrs by MTT assay; type: functional; settings: NBRC 13719, 12 h

C=C1CCC[C@H]2[C@](C)(CC3=C(O)C(=O)C=C(NCC(C)C)C3=O)[C@@H](C)CC[C@]12C
IC50 (MCF7): 4.6 µM | MIC (Klebsiella pneumoniae): > 100 µM | MIC (Staphylococcus aureus): 25 µM (≈ 9.99 µg/mL) | MIC (Escherichia coli): > 100 µM | IC50 (HeLa): 7.6 µM | IC50 (WI-38): 3.5 µM | IC50 (A549): 6.7 µM | MIC (Bacillus subtilis): 12.5 µM (≈ 4.99 µg/mL)

C=C1CCC[C@@H]2[C@@](C)(Cc3cc(C(=O)OC)cc(O)c3O)[C@H](C)CC[C@@]12C
IC50 (MCF7): > 50 µM | MIC (Klebsiella pneumoniae): > 100 µM | MIC (Staphylococcus aureus): 6.25 µM (≈ 2.33 µg/mL) | MIC (Escherichia coli): > 100 µM | IC50 (HeLa): > 50 µM | IC50 (WI-38): > 50 µM | IC50 (A549): > 50 µM | MIC (Bacillus subtilis): 6.25 µM (≈ 2.33 µg/mL)

C=C1CCC[C@@H]2[C@@](CO)(Cc3cc(C(=O)OC)cc(OC)c3O)[C@H](C)CC[C@@]12C
IC50 (MCF7): 42.6 µM | MIC (Klebsiella pneumoniae): > 100 µM | MIC (Staphylococcus aureus): > 100 µM | MIC (Escherichia coli): > 100 µM | IC50 (HeLa): > 50 µM | IC50 (WI-38): > 50 µM | IC50 (A549): > 50 µM | MIC (Bacillus subtilis): > 100 µM

C=C1CCC[C@H]2[C@](C)(CC3=C(O)C(=O)C=C(NCCCSC)C3=O)[C@@H](C)CC[C@]12C
IC50 (MCF7): 8.7 µM | MIC (Klebsiella pneumoniae): > 100 µM | MIC (Staphylococcus aureus): 12.5 µM (≈ 5.4 µg/mL) | MIC (Escherichia coli): > 100 µM | IC50 (HeLa): 8 µM | IC50 (WI-38): 8.8 µM | IC50 (A549): 6.2 µM | MIC (Bacillus subtilis): 12.5 µM (≈ 5.4 µg/mL)

C=C1CCC[C@H]2[C@](C)(CC3=C(O)C(=O)C=C(OCCCC)C3=O)[C@@H](C)CC[C@]12C
IC50 (MCF7): 9.6 µM | MIC (Klebsiella pneumoniae): > 100 µM | MIC (Staphylococcus aureus): 12.5 µM (≈ 5.01 µg/mL) | MIC (Escherichia coli): > 100 µM | IC50 (HeLa): 7.6 µM | IC50 (WI-38): 8.2 µM | IC50 (A549): 6.6 µM | MIC (Bacillus subtilis): 6.25 µM (≈ 2.5 µg/mL)

C=C1CCC[C@@H]2[C@@](C=O)(Cc3cc(C(=O)OC)c(O)c(OC)c3O)[C@H](C)CC[C@@]12C
IC50 (MCF7): 5 µM | MIC (Klebsiella pneumoniae): > 100 µM | MIC (Staphylococcus aureus): > 100 µM | MIC (Escherichia coli): > 100 µM | IC50 (HeLa): 7.2 µM | IC50 (WI-38): 8.7 µM | IC50 (A549): 7.8 µM | MIC (Bacillus subtilis): 25 µM (≈ 10.4 µg/mL)

C=C1CCC[C@@H]2[C@@](C)(Cc3cc(C(=O)OC)cc(OC)c3O)[C@H](C)CC[C@@]12C
IC50 (MCF7): > 50 µM | MIC (Klebsiella pneumoniae): > 100 µM | MIC (Staphylococcus aureus): > 100 µM | MIC (Escherichia coli): > 100 µM | IC50 (HeLa): > 50 µM | IC50 (WI-38): > 50 µM | IC50 (A549): > 50 µM | MIC (Bacillus subtilis): > 100 µM

C=C1CCC[C@H]2[C@](C)(CC3=C(O)C(=O)C=C(NCCc4ccccc4)C3=O)[C@@H](C)CC[C@]12C
IC50 (MCF7): 6.5 µM | MIC (Klebsiella pneumoniae): > 100 µM | MIC (Staphylococcus aureus): 6.25 µM (≈ 2.8 µg/mL) | MIC (Escherichia coli): > 100 µM | IC50 (HeLa): 5 µM | IC50 (WI-38): 3 µM | IC50 (A549): 4 µM | MIC (Bacillus subtilis): 6.25 µM (≈ 2.8 µg/mL)

C=C1CCC[C@@H]2[C@@](C=O)(Cc3cc(C(=O)OC)cc(OC)c3O)[C@H](C)CC[C@@]12C
IC50 (MCF7): > 50 µM | MIC (Klebsiella pneumoniae): > 100 µM | MIC (Staphylococcus aureus): > 100 µM | MIC (Escherichia coli): > 100 µM | IC50 (HeLa): > 50 µM | IC50 (WI-38): > 50 µM | IC50 (A549): > 50 µM | MIC (Bacillus subtilis): > 100 µM

C=C1CCC[C@@H]2[C@@](CO)(Cc3cc(C(=O)OC)c(O)c(OC)c3O)[C@H](C)CC[C@@]12C
IC50 (MCF7): > 50 µM | MIC (Klebsiella pneumoniae): > 100 µM | MIC (Staphylococcus aureus): > 100 µM | MIC (Escherichia coli): > 100 µM | IC50 (HeLa): > 50 µM | IC50 (WI-38): 42.1 µM | IC50 (A549): > 50 µM | MIC (Bacillus subtilis): > 100 µM

C=C1CCC[C@H]2[C@](C)(CC3=C(O)C(=O)C=C(NCC(C)CC)C3=O)[C@@H](C)CC[C@]12C (some centres not stated)
IC50 (MCF7): 7.6 µM | MIC (Klebsiella pneumoniae): > 100 µM | MIC (Staphylococcus aureus): 6.25 µM (≈ 2.59 µg/mL) | MIC (Escherichia coli): > 100 µM | IC50 (HeLa): 4.8 µM | IC50 (WI-38): 6.9 µM | IC50 (A549): 8.9 µM | MIC (Bacillus subtilis): 6.25 µM (≈ 2.59 µg/mL)

C=C1CCC[C@@H]2[C@@](C)(Cc3cc(C(=O)OC)c(O)c(OC)c3O)[C@H](C)CC[C@@]12C
IC50 (MCF7): > 50 µM | MIC (Klebsiella pneumoniae): > 100 µM | MIC (Staphylococcus aureus): > 100 µM | MIC (Escherichia coli): > 100 µM | IC50 (HeLa): > 50 µM | IC50 (WI-38): > 50 µM | IC50 (A549): > 50 µM | MIC (Bacillus subtilis): 12.5 µM (≈ 5.03 µg/mL)

CC1(C)S[C@@H]2[C@H](NC(=O)[C@H](N)c3ccccc3)C(=O)N2[C@H]1C(=O)O [AMPICILLIN]
MIC (Staphylococcus aureus): 6.25 µM (≈ 2.18 µg/mL) | MIC (Bacillus subtilis): 6.25 µM (≈ 2.18 µg/mL)

O=c1[nH]cc(F)c(=O)[nH]1 [FLUOROURACIL]
IC50 (MCF7): 5.6 µM | IC50 (HeLa): 5.3 µM | IC50 (WI-38): 6.8 µM | IC50 (A549): 4.7 µM

C=C1CCC[C@H]2[C@](C)(CC3=C(O)C(=O)C=C(OC)C3=O)[C@@H](C)CC[C@]12C [ILIMAQUINONE]
IC50 (MCF7): 8.3 µM | MIC (Klebsiella pneumoniae): > 100 µM | MIC (Staphylococcus aureus): 6.25 µM (≈ 2.24 µg/mL) | MIC (Escherichia coli): > 100 µM | IC50 (HeLa): 7.6 µM | IC50 (WI-38): 9.7 µM | IC50 (A549): 5.9 µM | MIC (Bacillus subtilis): 6.25 µM (≈ 2.24 µg/mL)

NC[C@H]1O[C@H](O[C@H]2[C@H](O)[C@@H](O[C@H]3O[C@H](CO)[C@@H](O)[C@H](N)[C@H]3O)[C@H](N)C[C@@H]2N)[C@H](O)[C@@H](O)[C@@H]1O [KANAMYCIN]
MIC (Klebsiella pneumoniae): 6.25 µM (≈ 3.03 µg/mL) | MIC (Escherichia coli): 12.5 µM (≈ 6.06 µg/mL)
